Key:
BT2068 = target: T1, BT2068 (Bacteroides thetaiotaomicron, UniProt Q8A618); experiment: LC-MS drug depletion by E. coli expressing bt2068; assay type: cell-based; conditions: whole E. coli cells, anaerobic, 37 °C
T1 sequence (Q8A618 1-253): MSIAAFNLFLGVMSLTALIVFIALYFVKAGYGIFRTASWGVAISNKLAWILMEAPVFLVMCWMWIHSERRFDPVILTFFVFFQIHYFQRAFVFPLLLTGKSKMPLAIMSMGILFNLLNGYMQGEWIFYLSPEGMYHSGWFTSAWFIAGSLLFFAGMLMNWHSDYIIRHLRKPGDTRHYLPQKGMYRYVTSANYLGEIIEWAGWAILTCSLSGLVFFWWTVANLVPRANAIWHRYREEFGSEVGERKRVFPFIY

BT4096 = target: T2, BT4096 (Bacteroides thetaiotaomicron, UniProt Q8A0C5); experiment: LC-MS time course of deacetylation; assay type: biochemical; conditions: Tris-HCl 10 mM pH 7, 2.5 mM MgSO4 and Mn, 37 °C; 0-250 µM substrate
T2 sequence (Q8A0C5 21-460): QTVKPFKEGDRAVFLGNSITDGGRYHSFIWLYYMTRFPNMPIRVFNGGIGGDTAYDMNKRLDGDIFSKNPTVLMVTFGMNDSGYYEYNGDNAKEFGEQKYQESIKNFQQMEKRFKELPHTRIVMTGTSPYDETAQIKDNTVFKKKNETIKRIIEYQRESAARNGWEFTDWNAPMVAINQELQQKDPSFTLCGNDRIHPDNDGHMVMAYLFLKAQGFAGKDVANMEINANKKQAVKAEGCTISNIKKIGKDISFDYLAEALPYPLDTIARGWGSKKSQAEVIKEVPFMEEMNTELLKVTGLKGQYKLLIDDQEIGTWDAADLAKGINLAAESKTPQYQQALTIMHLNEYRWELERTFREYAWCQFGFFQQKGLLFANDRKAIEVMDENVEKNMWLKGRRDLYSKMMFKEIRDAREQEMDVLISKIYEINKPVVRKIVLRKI

SMILES: CC(=O)[C@H]1CC[C@H]2[C@@H]3CCC4=CC(=O)CC[C@]4(C)[C@H]3CC[C@]12C [progesterone]
- LC-MS drug depletion by E. coli expressing bt2068 (BT2068): BT2068 also metabolizes the structurally related compounds levonorgestrel and progesterone

SMILES: C#C[C@]1(O)CC[C@H]2[C@@H]3CCC4=CC(=O)CC[C@@H]4[C@H]3CC[C@@]21CC [levonorgestrel]
- LC-MS drug depletion by E. coli expressing bt2068 (BT2068): BT2068 also metabolizes the structurally related compounds levonorgestrel and progesterone

SMILES: CNCCN1C(=O)[C@H](OC(C)=O)[C@H](c2ccc(OC)cc2)Sc2ccccc21 [N-desmethyldiltiazem]
- LC-MS time course of deacetylation (BT4096): BT4096 also deacetylates N-desmethyldiltiazem

SMILES: COc1ccc([C@@H]2Sc3ccccc3N(CCN(C)C)C(=O)[C@@H]2OC(C)=O)cc1 [diltiazem]
- LC-MS time course of deacetylation (BT4096): demonstrated that the purified enzyme catalyzes the drug transformation (Fig. 3c)

Source: PMC6597290 (Nature, 2019)
